In US12600696B2 (XENIOPRO GMBH, priority 2017, dated 2026):

Columns and labels:
Type in all cases: cell-based
[1] = tested on: Notch signaling (hNotch1ΔE, human Notch1 receptor) in HeLa cells; assay: Notch reporter assay (luciferase luminescence readout in transfected HeLa cells); details: Homo sapiens, 20 hours, relative to DMSO baseline level of 1.0, read-out: AVEw, weighted arithmetic mean of double-normalized Notch-reporter luciferase luminescence values (Activity Range)
Outline: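 HeLa cells were transiently transfected for 24 h with membrane-tethered constitutively active hNotch1ΔE, a CSL-promoter Firefly luciferase reporter and constitutive SV40-Renilla luciferase. Compounds were then applied at 10 μM (0.1% DMSO) for 20 h. Firefly/Renilla dual-luciferase ratios were normalized to DMSO control (baseline 1.0), outliers were excluded, and replicate values were averaged across ≥3 independent experiments.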

[2] = tested on: HPEKp cells (human epidermal keratinocyte progenitors, pooled); assay: alamarBlue proliferation assay with HPEKp cells; details: 120 h, relative to DMSO basis level 1.0, read-out: weighted arithmetic mean (AVEw) of normalized fluorescence intensity, activity range
Description: (§1) The antiproliferative activities of compounds falling under formula I, formula II, formula III, formula IV and formula V were investigated on cells or cell lines originating from a disorder of the myeloid cell compartment, the neuroendocrine system, the cervix, and the mucosal epithelium, as well as from the skin epithelium. To this end, HL-60 cells, TT cells, HeLa cells, CAL-27 cells and human primary epidermal keratinocytes (HPEK) were seeded into 96-well plates suitable for fluorescence assays (CORNING #3598) at following initial cell numbers: 1000 cells per well for HL-60; 9000 cells per well for TT; 2000 cells per well for HeLa, 2000 cells per well for CAL-27, 2000 cells per well for HPEK. The cells were treated with compounds at indicated final concentrations (diluted from the 1000× stock-solutions in DMSO to a final DMSO concentration of 0.1% v/v) or with the empty carrier DMSO at 0.1% v/v as control for 5 days. At day 5 after starting the treatments the cells were subjected to the alamarBlue® Proliferation Assay (Bio-Rad Serotec GmbH, BUF012B) according to the protocol of the manufacturer. The readout was taken with a multi-well plate-reader in the fluorescence mode with applying a filter for excitation at 560 nm (band width 10 nm) and for emission at 590 nm (band width 10 nm). Resveratrol (RES) treatment was included as control for growth inhibition.
(§2) The assays were performed in duplicate or more replicates of independent single experiments each containing a six-fold replicate for every condition. For every individual plate, the measured fluorescence intensity values of the conditions with compound treatment were normalized against the corresponding equally weighted arithmetic mean of the fluorescence intensity values of the six DMSO treated control wells in order to obtain the relative values to a baseline level of 1.0. The statistical calculations were performed in analogy to the luciferase assay as described above. To this end, two independent outlier analyses were performed according to the methods by Peirce and Chauvenet (Ross, Journal of Engineering Technology 2003, 1-12). Outliers confirmed by at least one of the methods were excluded from the calculations but not more than one value out of six per compound within a single experiment. The weighted arithmetic mean AVEw for each compound was calculated from the normalized values over all independent replicates of the single experiments comprising the six replicates each. The corresponding standard deviation for the weighted arithmetic mean was calculated according to the method described by Bronstein et al. (Bronstein, Semendjajew, Musiol, Mühlig, Taschenbuch der Mathematik, 5th edition 2001 (German), publisher: Verlag Harri Deutsch, Frankfurt am Main and Thun) and was combined with the Gauß′ error propagation associated with the performed calculation for the normalization. The resulting standard deviation is herein referred to as “combined standard deviation”.
HPEKp cells were cultivated according to the protocol of the provider in CnT-Prime epithelial culture medium (CELLnTEC, #CnT-PR, a fully defined, low calcium formulation, completely free of animal or human-derived components) without addition of further components.
(§3) A compound is considered as a growth inhibitor of HPEKp cells, if—at a reference concentration of 10 μM—the weighted arithmetic mean of the normalized fluorescence intensity values after addition of the corresponding combined standard deviation amounts to 0.9 or lower, in particular to 0.8 or lower, 0.7 or lower, 0.6 or lower, 0.4 or lower, and 0.2 or lower, relative to the overall basis level of 1.0. The overall basis level was calculated as the weighted arithmetic mean of all normalized values from the DMSO control measurements in analogy to the calculations performed for the test-compounds. The corresponding combined standard deviation for the DMSO values amounts to less than 1·10^−2.

[3] = tested on: HL-60 cells (human acute myeloid leukemia cells); assay: alamarBlue proliferation assay with HL-60 cells; details: 120 h, 5 days, relative to DMSO baseline level of 1.0, read-out: AVEw, weighted arithmetic mean of normalized fluorescence intensity values (Activity Range), HL-60 proliferation
Outline: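 HL-60 cells (1000/well, RPMI 1640 + 10% FBS) exposed to compound in 0.1% DMSO for 5 days, then alamarBlue fluorescence read (ex 560/em 590 nm). Signals normalized to six DMSO wells per plate (baseline 1.0); outliers removed by Peirce/Chauvenet; weighted mean with combined SD; inhibitor criterion judged at 20 μM reference concentration.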

[4] = tested on: CAL-27 cells (human tongue squamous cell carcinoma cells); assay: alamarBlue proliferation assay with CAL-27 cells; details: Homo sapiens, 120 h; for activity at 40 µM: relative to DMSO basis level 1.0, read-out: weighted arithmetic mean (AVEw) of normalized fluorescence intensity, activity range; for activity at 20 µM: 5 days, relative to DMSO baseline level of 1.0, read-out: AVEw, weighted arithmetic mean of normalized fluorescence intensity values (Activity Range), CAL-27 proliferation
Description: as §1, §2
CAL-27 cells were cultivated according to the protocol of the provider (but at 5% instead of 10% CO2) in DMEM medium (Fisherscientific, #11584456) containing 10% fetal bovine serum (Fisherscientific, #15517589).
as §3, with “of CAL-27” for “of HPEKp”, “of 20” for “of 10”

[5] = tested on: TT cells (human medullary thyroid carcinoma cells); assay: alamarBlue proliferation assay with TT cells; details: Homo sapiens, 120 h, 40 μM, relative to DMSO basis level 1.0, read-out: weighted arithmetic mean (AVEw) of normalized fluorescence intensity, activity range
Description: as §1, §2
TT cells were cultivated according to the protocol of the provider in F-12K medium (Fisherscientific, #11580556, or ATCC, #ATCC-30-2004) containing 10% fetal bovine serum (Fisherscientific, #15517589).
as §3, with “of TT” for “of HPEKp”, “of 40” for “of 10”

O=C(O)c1ccc(Oc2ccc(C3C[C@@H]4CC[C@H]3C4)cc2)nc1 (stereo partly drawn) [Compound 086, 6-(4-((1S,4R)-bicyclo[2.2.1]heptan-2-yl)phenoxy)nicotinic acid]
fold induction at 10 µM [1]: 1.1 to 1.2
activity at 10 µM [2]: 60 to 70%

NC(=O)c1ccc(Oc2ccc(C34CC5CC(CC(C5)C3)C4)cc2)cc1 [Compound 161, 4-(4-((3r,5r,7r)-adamantan-1-yl)phenoxy)benzamide]
activity at 20 µM [3]: 20 to 40%
activity at 40 µM [4]: 20 to 40%
activity at 40 µM [5]: 40 to 60%

CCCCc1ccc(Oc2ccc(C(=O)NO)cc2)cc1 [Compound 167, 4-(4-butylphenoxy)-N-hydroxybenzamide]
activity at 20 µM [3]: 40 to 60%
activity at 20 µM [4]: 60 to 70%
activity at 40 µM [4]: 0 to 20%
activity at 40 µM [5]: 20 to 40%

O=C(NO)c1ccc(Oc2ccc(C3CC4CCC3CC4)cc2)cc1 (stereo not shown) [Compound 185, 4-(4-((1s,4s)-bicyclo[2.2.2]octan-2-yl)phenoxy)-N-hydroxybenzamide]
activity at 20 µM [3]: 0 to 20%
activity at 20 µM [4]: 0 to 20%
activity at 10 µM [2]: 0 to 20%

CNC(=O)c1ccc(Oc2ccc(C3C[C@@H]4CC[C@H]3C4)cc2)cc1 (stereo partly drawn) [Compound 210, 4-(4-((1S,4R)-bicyclo[2.2.1]heptan-2-yl)phenoxy)-N-methylbenzamide]
activity at 20 µM [3]: 20 to 40%
activity at 20 µM [4]: 70 to 80%
activity at 40 µM [4]: 0 to 20%
activity at 40 µM [5]: 60 to 70%

CN(C)C(=O)c1ccc(Oc2ccc(C3CC4CCC3CC4)cc2)cc1 (stereo not shown) [Compound 237, 4-(4-((1s,4s)-bicyclo[2.2.2]octan-2-yl)phenoxy)-N,N-dimethylbenzamide]
activity at 20 µM [3]: 20 to 40%
activity at 20 µM [4]: 40 to 60%
activity at 40 µM [4]: 20 to 40%
activity at 40 µM [5]: 40 to 60%

CNC(=O)c1ccc(Oc2ccc(C3CCCCC3)cc2)nc1 [Compound 309, 6-(4-cyclohexylphenoxy)-N-methylnicotinamide]
activity at 40 µM [5]: 80 to 90%

CCC(C)(C)c1ccc(Oc2ccc(C(=O)N(C)C)cn2)cc1 [Compound 323, N,N-dimethyl-6-(4-(tert-pentyl)phenoxy)nicotinamide]
activity at 20 µM [3]: 40 to 60%
fold induction at 10 µM [1]: 1.1 to 1.2
activity at 10 µM [2]: 70 to 80%

CCC(C)(C)c1ccc(Oc2ccc(C(=O)OC)cc2F)cc1 [Compound 374, methyl 3-fluoro-4-(4-(tert-pentyl)phenoxy)benzoate]
activity at 20 µM [3]: 80 to 90%
fold induction at 10 µM [1]: 1.1 to 1.2
activity at 10 µM [2]: 80 to 90%

COC(=O)c1ccc(Oc2ccc(C34CC5CC(CC(C5)C3)C4)cc2)c(F)c1 [Compound 389, methyl 4-(4-((3r,5r,7r)-adamantan-1-yl)phenoxy)-3-fluorobenzoate]
activity at 20 µM [3]: 40 to 60%
activity at 10 µM [2]: 20 to 40%

O=C(O)c1cnc(Oc2ccc(C34CC5CC(CC(C5)C3)C4)cc2)c(F)c1 [Compound 440, 6-(4-((3r,5r,7r)-adamantan-1-yl)phenoxy)-5-fluoronicotinic acid]
activity at 20 µM [3]: 70 to 80%
activity at 10 µM [2]: 20 to 40%

CCOC(=O)c1ccc(Oc2ccc(C3(C(F)(F)F)CC3)cc2)cc1 [Compound 721, ethyl 4-(4-(1-(trifluoromethyl)cyclopropyl)phenoxy)benzoate]
activity at 20 µM [3]: 40 to 60%
fold induction at 10 µM [1]: 1.1 to 1.2
activity at 10 µM [2]: 70 to 80%

CCOC(=O)c1ccc(Oc2ccc(C3(C(F)(F)C(F)(F)F)CC3)cc2)cc1 [Compound 722]
activity at 20 µM [3]: 40 to 60%
activity at 40 µM [4]: 70 to 80%
activity at 10 µM [2]: 40 to 60%

CCOC(=O)c1ccc(Oc2ccc(C3(C(F)(F)F)CC3)cc2Cl)cc1 [Compound 729, Ethyl 4-(2-chloro-4-(1-(trifluoromethyl)cyclopropyl)phenoxy)-benzoate]
activity at 20 µM [3]: 40 to 60%
activity at 40 µM [4]: 20 to 40%
activity at 40 µM [5]: 20 to 40%

O=C(O)c1ccc(Oc2ccc(C3(C(F)(F)C(F)(F)F)CC3)cc2)nc1 [Compound 731]
activity at 20 µM [3]: 80 to 90%
activity at 10 µM [2]: 80 to 90%

CCOC(=O)c1ccc(Oc2ccc(C3(C(F)(F)F)CC3)cc2)nc1 [Compound 748, ethyl 6-(4-(1-(trifluoromethyl)cyclopropyl)phenoxy)nicotinate]
activity at 40 µM [5]: 70 to 80%

O=C(NO)c1ccc(Oc2ccc(C3(C(F)(F)F)CC3)cc2)c(F)c1 [Compound 768, 3-fluoro-N-hydroxy-4-(4-(1-(trifluoromethyl)cyclopropyl)phenoxy)benzamide]
activity at 20 µM [3]: 0 to 20%
activity at 20 µM [4]: 20 to 40%
activity at 40 µM [4]: 20 to 40%
activity at 40 µM [5]: 0 to 20%

NC(=O)c1ccc(Oc2ccc(C3(C(F)(F)F)CC3)cc2Cl)nc1 [Compound 801, 6-(2-chloro-4-(1-(trifluoromethyl)cyclopropyl)phenoxy)nicotinamide]
activity at 10 µM [2]: 80 to 90%

O=C(NO)c1ccc(Oc2ccc(C3(C(F)(F)F)CC3)cc2Cl)nc1 [Compound 810, 6-(2-chloro-4-(1-(trifluoromethyl)cyclopropyl)phenoxy)-N-hydroxynicotinamide]
activity at 20 µM [3]: 0 to 20%
activity at 20 µM [4]: 0 to 20%
activity at 10 µM [2]: 0 to 20%

CNC(=O)c1ccc(Oc2ccc(C3(C(F)(F)F)CC3)cc2Cl)nc1 [Compound 819]
activity at 20 µM [3]: 80 to 90%
activity at 10 µM [2]: 70 to 80%

CN(C)C(=O)c1ccc(Oc2ccc(C3(C(F)(F)F)CC3)cc2Cl)nc1 [Compound 828, 6-(2-chloro-4-(1-(trifluoromethyl)cyclopropyl)phenoxy)-N,N-dimethylnicotinamide]
activity at 20 µM [3]: 60 to 70%
activity at 10 µM [2]: 70 to 80%
